The subject of data set [1] is Lymphocyte. Briefly: Antioxidant activity in FRDA patient derived lymphocytes assessed as inhibition of DEM-mediated lipid peroxidation at 0.1 to 2.5 uM pretreated for 16 hrs followed by DEM addition measured after 120 mins by C11-BODIPY581/591 probe-based FACS analysis. Format: functional, cell-based. To be noted: Homo sapiens.
Data set [2] can be described thus: Metabolic stability in bovine liver microsomes assessed as compound recovery at 25 uM after 30 mins in presence of beta-NADPH by HPLC method. The note with it: cattle, read-out: Drug recovery. Format: ADME, Bos taurus, microsome.
Data set [3] has as its system Lymphocyte. Briefly: Cytoprotective activity in DEM-treated FRDA patient derived lymphocytes assessed as preservation of mitochondrial inner membrane potential at 2.5 uM pretreated for 16 hrs followed by DEM addition measured after 120 mins by TMRM dye-based flow cytometric analysis. The data set is classed as functional, cell-based. To be noted: Homo sapiens.
Data set [4] relates to Lymphocyte. Briefly: Cytoprotective activity against DEM-induced oxidative stress in FRDA patient derived lymphocytes assessed as increase in cell viability at 0.1 to 2.5 uM pretreated for 16 hrs followed by DEM addition measured after 6 hrs by calcein acetoxy-methyl-ester/ethidium homodimer-1 staining-based flow cytometric analysis. Format: functional. To be noted: Homo sapiens.

The subject of data set [5] is Lymphocyte. Briefly: Antioxidant activity in FRDA patient derived lymphocytes assessed as inhibition of DEM-mediated reactive oxygen species formation at 0.1 to 2.5 uM pretreated for 16 hrs followed by DEM addition measured after 80 mins by DCFH-DA dye-based flow cytometric analysis. The data set is classed as functional, cell-based. The note with it: Homo sapiens.

Data set [6] concerns Lymphocyte. Briefly: Antioxidant activity in FRDA patient derived lymphocytes assessed as inhibition of DEM-mediated reactive oxygen species formation at 2.5 uM pretreated for 16 hrs followed by DEM addition measured after 80 mins by DCFH-DA dye-based flow cytometric analysis. The data set is classed as functional, cell-based. To be noted: Homo sapiens. On the technique in general: In flow cytometry, cells or beads pass a laser one at a time.

Data set [7] deals with Lymphocyte. Briefly: Cytoprotective activity against DEM-induced oxidative stress in FRDA patient derived lymphocytes assessed as increase in cell viability at 2.5 uM pretreated for 16 hrs followed by DEM addition measured after 6 hrs by calcein acetoxy-methyl-ester/ethidium homodimer-1 staining-based flow cytometric analysis. Format: functional. The note with it: Homo sapiens.

In data set [8] the test system is Lymphocyte. Briefly: Antioxidant activity in FRDA patient derived lymphocytes assessed as inhibition of DEM-mediated lipid peroxidation at 0.1 to 0.5 uM pretreated for 16 hrs followed by DEM addition measured after 120 mins by C11-BODIPY581/591 probe-based FACS analysis. The data set is classed as functional, cell-based. The note with it: Homo sapiens.
The test system of data set [9] is Lymphocyte. Briefly: Cytoprotective activity in FRDA patient derived lymphocytes cultured in glucose-free media supplemented with galactose assessed as total intracellular ATP levels at 25 uM after 48 hrs by luciferin-luciferase reaction-based bioluminescence assay relative to control. Format: functional, Homo sapiens.
Data set [10] has as its system Lymphocyte. Briefly: Cytoprotective activity in FRDA patient derived lymphocytes cultured in glucose-free media supplemented with galactose assessed as total intracellular ATP levels at 5 uM after 48 hrs by luciferin-luciferase reaction-based bioluminescence assay relative to control. The data set is classed as functional, Homo sapiens.
Data set [11] concerns Lymphocyte. Briefly: Cytoprotective activity in FRDA patient derived lymphocytes cultured in glucose-free media supplemented with galactose assessed as total intracellular ATP levels at 1 uM after 48 hrs by luciferin-luciferase reaction-based bioluminescence assay relative to control. The data set is classed as functional, Homo sapiens.
Data set [12] deals with Lymphocyte. Briefly: Cytoprotective activity in DEM-treated FRDA patient derived lymphocytes assessed as preservation of mitochondrial inner membrane potential at 0.5 uM pretreated for 16 hrs followed by DEM addition measured after 120 mins by TMRM dye-based flow cytometric analysis. The note with it: Homo sapiens. The data set is classed as functional, cell-based.

Activity calls are given as the source filed them. No cut-off for these calls is given here.

As to `Cc1nc(OC2CCC2)nc(OC2CCC2)c1O`, in the data set with Lymphocyte [1], the inhibition result is “inactive”.
With `CCCCCCCCCCCCCCCCc1nc(OC2CCC2)nc(OC2CCC2)c1O`, the inhibition entry with Lymphocyte [1] was “inactive”. In addition, the remaining at 0.5 h, 25 µM in data set [2] came to 60%.
Consider `CCCCCCCCCCCCCCCCc1nc(N2CCC2)nc(N2CCC2)c1O`, for which the result in the data set with Lymphocyte [3] and with Lymphocyte [4] was Active. Moreover, the inhibition entry in the data set on Lymphocyte [1] is “inactive”. Also, the remaining at 0.5 h, 25 µM in data set [2] is 62%.
For `CCCCCCCCCCCCCCCCc1nc(N2CCC2)nc(OC2CCC2)c1O`, the result in the data set on Lymphocyte [3] and in the data set on Lymphocyte [4] was Active. Also, the inhibition result in the data set with Lymphocyte [5] and in the data set on Lymphocyte [1] was “Active” each time.
In the case of `Cc1nc(N2CCC2)nc(OC2CCC2)c1O`, in the data set with Lymphocyte [1], the inhibition result was “inactive”.
For the compound `CCCCCCCCCCCCCCCCc1nc(OC2CCC2)nc(N2CCC2)c1O`, the outcome in the data set on Lymphocyte [3] and in the data set on Lymphocyte [4] was Active. Besides, the inhibition entry with Lymphocyte [5] and in the data set on Lymphocyte [1] was “Active” each time. The remaining at 0.5 h, 25 µM in [2] was 63%.
Take `Cc1nc(N2CCC2)nc(N2CCC2)c1O`: the inhibition entry with Lymphocyte [1] was “inactive”.
As to `CCCCCCCCCCCCCCc1nc(OC2CCC2)nc(OC2CCC2)c1O`, the result in the data set on Lymphocyte [3] and in the data set on Lymphocyte [7] was Active. In addition, the inhibition result in the data set with Lymphocyte [6] and with Lymphocyte [1] was “Active” in each case. Further, in the data set with Lymphocyte [8], the inhibition result is “inactive”. In data set [2], the remaining at 0.5 h, 25 µM worked out at 72%.
`CCCCCCCCCCCCCCc1nc(OC2CCC2)nc(N2CCC2)c1O`: the result with Lymphocyte [3] and in the data set on Lymphocyte [4] was Active. For the same compound, the inhibition result with Lymphocyte [5] and with Lymphocyte [1] was “Active” in each case. Besides, the remaining at 0.5 h, 25 µM in data set [2] came out at 77%.
Turning to `COC1=C(OC)C(=O)C(CCCCCCCCCCO)=C(C)C1=O` [IDEBENONE], the outcome in the data set with Lymphocyte [3] and in the data set on Lymphocyte [12] was Active. For the same compound, the inhibition entry in the data set on Lymphocyte [1] was “Active”. Further, the Activity with Lymphocyte [9] was found to be 3%; with Lymphocyte [10] it was 73%; in the data set on Lymphocyte [11], 98%. Besides, the remaining at 0.5 h, 25 µM in [2] amounted to 61%.
Take `CCCCCCCCCCCCCCc1nc(N2CCC2)nc(OC2CCC2)c1O`: the result with Lymphocyte [3] and in the data set with Lymphocyte [4] was Active. For the same compound, the inhibition result with Lymphocyte [5] and in the data set with Lymphocyte [1] was “Active” each time. For the same compound, in [2], the remaining at 0.5 h, 25 µM was 63%.
Regarding `CCCCCCCCCCCCCCc1nc(N2CCC2)nc(N2CCC2)c1O`, the result in the data set with Lymphocyte [3] and with Lymphocyte [4] was Active. The inhibition entry in the data set on Lymphocyte [1] is “inactive”. In [2], the remaining at 0.5 h, 25 µM was 63%.
With `Cc1nc(OC2CCC2)nc(N2CCC2)c1O`, the inhibition result in the data set with Lymphocyte [1] was “inactive”.
